Data reported in patent US20260034135A1, “USE OF N6-BENZYLAMINOPURINE AS AN APPETITE SUPPRESSANT” (THE GOVERNING COUNCIL OF THE UNIVERSITY OF TORONTO, priority 2022, published 2026).

What was measured:
Format in all cases: cell-based, mouse
AMPK = AMPK phosphorylation by Western blot in mHypoE-46; settings: 500 μM AICAR, 15 min, mHypoE-46, positive control
Experimental: mHypoE-46 cells were serum starved in 5.5 mM glucose (LG) DMEM for 1 hour prior to treatment with vehicle (0.1% DMSO), 100 µM BAP or H20, […] 5-Aminoimidazole-4-carboxamide ribonucleotide (AICAR) or 0 mM glucose DMEM. Protein was harvested using 1× cell lysis buffer (Cell Signaling Technologies, Inc, CST) containing protease and phosphatase inhibitors. A total of 30 μg protein was separated on a 12% SDS-polyacrylamide gels and transferred onto PVDF membranes. Membranes were blocked in 5% milk dissolved in Tris-buffered saline with Tween 20 (TBS-T) for 1 h and incubated with primary antibody overnight at 4° C. phospho-AMPKα (Thr172; cat. 2532S, CST), and total AMPKα (cat. 2535S, CST); phospho-p70-S6K (Thr389; cat. 9205S, CST) and total p70-S6K (cat. 9202S, CST); insulin receptor ß (cat. 3025S, CST); phospho-AKT (Ser473; cat. 9271S, CST) and total AKT (cat. 9272S, CST); phospho-ERK1/2 (Thr202/Tyr204; cat. 9101, CST) and total ERK (cat. 4695, CST) were diluted 1:1000 in 5% milk in TBS-T. Membranes were washed and incubated with secondary HRP-linked antirabbit antibody (1:7500 in 5% milk in TBS-T, CST) for 1 h, washed, and imaged using the Signal Fire ECL Reagent (CST) on the iBright 1500 Imaging System (Thermofisher). Protein density was quantified using ImageJ or the iBright Imaging System.

mHypoE-44 cell line = test: Gene expression by qRT-PCR in mHypoE-44 hypothalamic cell line; settings: 16 hr
Experimental: (§1) Hypothalamic neurons from embryonic and adult mice were previously immortalized to generate the clonal cell lines mHypoE-46, mHypoE-44, mHypoE-41, mHypoE-38, mHypoA-59, a FAC-sorted POMC/GFP mouse-derived cell line, mHypoA-POMC/GFP-2, and a mixed culture mHypoA-Bmal1-WT/F cell line (6, 13, 14). The mHypoE-46, mHypoE-44, and mHypoA-Bmal1-WT/F lines were cultured in DMEM containing 1000 mg/L glucose supplemented with 5% FBS and 1% pen/strep. The mHypoE-41, mHypoE-38, and mHypoA-59 cell lines were cultured in DMEM containing 4500 mg/L glucose supplemented with 2% FBS and 1% pen/strep. The mHypoA-POMC/GFP-2 line was cultured in DMEM containing 1000 mg/L glucose supplemented with 2% FBS and 1% pen/strep. All cells were maintained in 5% CO2 at 37° C. BAP was initially dissolved in DMSO solvent (vehicle control) to achieve 1000x the intended dose. The BAP solution was then diluted 1:1000 with the growth media used for the cell line. For co-treatment experiments, the vehicle control for ATP, UDP, and PKI was water, and for the H89 PKA inhibitor was DMSO. Neuropeptide gene expression levels were determined by qRT-PCR.
(§2) For cell culture experiments, total RNA was isolated using PureLink RNA isolation kit (Thermofisher Scientific, Burlington, ON, Canada) according to the manufacturer's instruction with on column DNase step (PureLink DNAse kit) or DNase I treatment to remove genomic DNA. For mouse experiments, total RNA was isolated using mirVana PARIS RNA and native protein isolation kit (Thermofisher Scientific). RNA quality and quantity were measured using Nanodrop 2000 and 500-1000 ng of complimentary DNA (cDNA) was synthesized with High Capacity cDNA Reverse Transcription kit (Applied biosystems, Thermofisher Scientific). Quantitative reverse transcription polymerase chain reaction (RT-qPCR) was performed with 12.5 ng of cDNA amplified with Platinum SYBR green qPCR SuperMix-UDG with ROX on an Applied Biosystems Prism 7900HT or PowerTrack Green Master Mix on an Applied Biosystems QuantStudio 5 and gene specific primers as per manufacturer's instructions (Table 1). Data was analyzed using […] and normalized to reference gene, either 60S ribosomal protein L7 (Rpl7) or Histone 3a (His).

mHypoA-59 cell line = test: Gene expression by qRT-PCR in mHypoA-59 hypothalamic cell line; settings: ATP (data not shown)
Experimental: as §1, §2

mHypoE-41 cell line = test: Gene expression by qRT-PCR in mHypoE-41 hypothalamic cell line; settings: 100 μM ATP, 16 hr
Experimental: as §1, §2

mHypoE-46 cell line = test: Gene expression by qRT-PCR in mHypoE-46 hypothalamic cell line; settings: for Npy expression: 16 hr
Experimental: as §1, §2

NC(=O)c1ncn([C@@H]2O[C@H](COP(=O)(O)O)[C@@H](O)[C@H]2O)c1N [AICAR, 5-Aminoimidazole-4-carboxamide ribonucleotide, reference compound]
AMPK phosphorylation (activation) vs vehicle (AMPK): significantly activate AMPK

Nc1ncnc2c1ncn2[C@@H]1O[C@H](COP(=O)(O)OP(=O)(O)OP(=O)(O)O)[C@@H](O)[C@H]1O [ATP, reference compound]
Npy expression (mHypoE-44 cell line; 100 μM ATP): induces the expression of Npy
Agrp expression (mHypoA-59 cell line): increased
Npy expression (mHypoA-59 cell line): increased
Npy expression (mHypoE-41 cell line): induces the expression of Npy
Npy expression (mHypoE-46 cell line; 100 μM ATP): induces the expression of Npy

O=c1ccn([C@@H]2O[C@H](COP(=O)(O)OP(=O)(O)O)[C@@H](O)[C@H]2O)c(=O)[nH]1 [UDP, reference compound]
Npy expression (mHypoE-44 cell line; 100 μM UDP): unable to affect the expression of Npy
Npy expression (mHypoE-46 cell line; 100 μM UDP): no effect

O=c1ccn([C@@H]2O[C@H](COP(=O)(O)OP(=O)(O)OP(=O)(O)O)[C@@H](O)[C@H]2O)c(=O)[nH]1 [UTP, reference compound]
basal Npy expression (mHypoE-44 cell line; 100 μM UTP, n=2 preliminary): may decrease the basal expression of Npy
Npy expression (mHypoE-46 cell line; 100 μM UTP, n=2 preliminary): no effect

c1coc(CNc2ncnc3[nH]cnc23)c1 [kinetin]
repression of Npy transcripts (mHypoE-46 cell line; 100 μM kinetin, 16 h, n=2 preliminary): ~50%
